Results reported in patent US5516936A, “Inhibitors of kynureninase” (University of Georgia Research Foundation, Inc., priority 1993, dated 1996).

Assays:
kynureninase = conditions: cited from earlier work
rat liver kynureninase = target: T1, rat liver kynureninase (Rattus norvegicus, UniProt P70712); conditions: cited from earlier work
T1 construct: host or cells: rat liver
T1 sequence (P70712 1-464): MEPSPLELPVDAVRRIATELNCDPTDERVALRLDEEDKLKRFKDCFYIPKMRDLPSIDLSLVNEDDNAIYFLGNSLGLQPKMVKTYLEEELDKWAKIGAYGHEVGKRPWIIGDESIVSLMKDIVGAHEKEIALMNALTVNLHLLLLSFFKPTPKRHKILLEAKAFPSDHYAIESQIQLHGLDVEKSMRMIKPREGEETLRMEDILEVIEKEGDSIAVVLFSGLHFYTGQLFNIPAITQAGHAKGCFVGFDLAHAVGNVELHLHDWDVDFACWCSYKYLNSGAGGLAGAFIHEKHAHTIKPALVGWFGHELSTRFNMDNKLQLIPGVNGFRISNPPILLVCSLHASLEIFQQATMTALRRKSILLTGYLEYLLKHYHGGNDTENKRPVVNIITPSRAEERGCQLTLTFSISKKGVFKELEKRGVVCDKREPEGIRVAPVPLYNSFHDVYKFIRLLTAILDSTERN

[1] = substrate: Nc1ccccc1C(=O)C[C@H](N)C(=O)O; test: Reactivity of dihydrokynurenine and L-kynurenine with bacterial kynureninase; type: biochemical, Pseudomonas fluorescens; conditions: other: L-kynurenine, present work, 30.0 °C
Experimental: The reactivity of the two dihydrokynurenines with kynureninase in 0.1M potassium phosphate buffer, pH 8.0, at 25° was examined. Reaction was followed by the appearance of o-aminobenzaldehyde, as determined spectrophotometrically by the increase in absorbance at 360 nm (See Tanizawa and Soda (1979) Biochem. (Tokyo) 86:1199-1209, which is incorporated by reference herein).

For `NC(C(=O)O)C(F)(F)C(=O)c1ccccc1` (stereo not drawn) [2,2-difluoro-α-benzoyl alanine, α-amino-β,β-difluoro-γ-oxobenzene butanoic acid], the “inhibition of kynureninase (in words)” value (kynureninase) is listed as “competitive inhibitor of kynureninase”.

In the case of `N[C@@H](CSc1nc2ccccc2s1)C(=O)O` [S-2-(benzothiazolyl)-L-cysteine], the “cleavage by rat liver kynureninase (in words)” value (rat liver kynureninase) is given as “cleavage of S-2-(benzothiazolyl)-L-cysteine to give 2-mercaptobenzothiazole, pyruvate and ammonia”.

B1: Kynureninase (Pseudomonas fluorescens) (protein)
chain: MTTRNDCLALDAQDSLAPLRQQFALPEGVIYLDGNSLGARPVAALARAQAVIAEEWGNGLIRSWNSAGWRDLSERLGNRLATLIGARDGEVVVTDTTSINLFKVLSAALRVQATRSPERRVIVTETSNFPTDLYIAEGLADMLQQGYTLRLVDSPEELPQAIDQDTAVVMLTHVNYKTGYMHDMQALTALSHECGALAIWDLAHSAGAVPVDLHQAGADYAIGCTYKYLNGGPGSQAFVWVSPQLCDLVPQPLSGWFGHSRQFAMEPRYEPSNGIARYLCGTQPITSLAMVECGLDVFAQTDMASLRRKSLALTDLFIELVEQRCAAHELTLVTPREHAKRGSHVSFEHPEGYAVIQALIDRGVIGDYREPRIMRFGFTPLYTTFTEVWDAVQILGEILDRKTWAQAQFQVRHSVT
notes: Bacterial kynureninase was prepared from cells of Pseudomonas fluorescens; endogenous in cells; partially purified by DEAE-cellulose and ammonium sulfate
For B1, the Km [1] was 25 µM.
